Reference: publication PMC6532911, “Oryza sativa Brittle Culm 1-like 6 modulates β-glucan levels in the endosperm cell wall” (PLoS ONE, 2019)

Target: T1, CBM-GST (CBM of OsBC1L6) (Oryza sativa, UniProt Q6Z4G8)
T1 construct: gene BC1L6; wheat germ cell-free expression; 48 kDa by SDS-PAGE
T1 sequence (Q6Z4G8 31-191): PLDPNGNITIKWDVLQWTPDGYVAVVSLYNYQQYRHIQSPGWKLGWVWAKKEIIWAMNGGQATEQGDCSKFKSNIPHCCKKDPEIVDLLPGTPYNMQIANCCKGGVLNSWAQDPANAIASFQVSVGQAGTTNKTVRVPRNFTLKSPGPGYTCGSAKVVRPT
Assay: surface plasmon resonance (Biacore T200)
Assay type: binding
Details: CBM-GST captured by anti-GST on CM5 chip; HBS-EP pH 7.4, 25°C

| Structure (SMILES) | Kd [µM] |
| --- | --- |
| OC1OC[C@@H](O[C@@H]2OC[C@@H](O[C@@H]3OC[C@@H](O[C@@H]4OC[C@@H](O[C@@H]5OC[C@@H](O[C@@H]6OC[C@@H](O)[C@H](O)[C@H]6O)[C@H](O)[C@H]5O)[C@H](O)[C@H]4O)[C@H](O)[C@H]3O)[C@H](O)[C@H]2O)[C@H](O)[C@H]1O (some centres unmarked) [XXXXXX, xylohexaose] | 760 |
| OC[C@H]1O[C@@H](O[C@H]2[C@H](O)[C@@H](O)[C@H](O[C@H]3[C@H](O)[C@@H](O)[C@H](O[C@H]4[C@H](O)[C@@H](O)[C@H](O[C@H]5[C@H](O)[C@@H](O)[C@H](O[C@H]6[C@H](O)[C@@H](O)C(O)O[C@@H]6CO)O[C@@H]5CO)O[C@@H]4CO)O[C@@H]3CO)O[C@@H]2CO)[C@H](O)[C@@H](O)[C@@H]1O (some centres unmarked) [GGGGGG, cellohexaose] | 852 |
